Test results: patent publication US9187529B2 (priority 2011, dated 2015)
Where “and” joins values, the source holds several entries; their conditions need not be identical. Equal values may be shown once. Ends that are not written are not given here. Peptide text beside a SMILES is read from it.

Columns and labels:
[1] = rabbit, in vivo
[2] = test system: S. aureus MN8; assay type: cell-based, Staphylococcus aureus
[3] = test system: TSST-1 production of S. aureus MN8; assay type: cell-based, Staphylococcus aureus

Row | Compound | signs of inflammation and vaginal irritation [1] | antimicrobial activity [2] | TSST-1 % of No Peptide Control [3] | TSST-1 inhibition activity [3] | viable count (10^8 CFU/mL) [2] | inhibition of MN8 growth [2] | dose (as low as) giving complete inhibition of TSST-1 production [3]
1 | C[C@H](NC(=O)[C@H](CO)NC(=O)[C@H](CCCCN)NC(=O)[C@H](Cc1c[nH]cn1)NC(=O)[C@H](CO)NC(=O)[C@H](CCCCN)NC(=O)[C@H](CCCCN)NC(=O)[C@H](CCCCN)NC(=O)[C@H](Cc1c[nH]cn1)NC(=O)[C@@H]1CCCN1C(=O)[C@H](CCCCN)NC(=O)[C@H](Cc1ccc(O)cc1)NC(=O)[C@H](CCCCN)NC(=O)[C@H](CCCCN)NC(=O)[C@H](CCCCN)NC(=O)[C@H](CCCCN)NC(=O)[C@@H]1CCCN1C(=O)[C@H](CCCCN)NC(=O)[C@@H](N)CO)C(=O)N[C@@H](CCCCN)C(=O)N[C@@H](CCCCN)C(=O)N[C@@H](CCCCN)C(=O)O [SP-1] (H-SKPKKKKYKPHKKKSHKSAKKK-OH) | No irritation or inflammation was observed |  |  |  |  |  | 
2 | SFPTTATYFPAFDLSAGSAQVA [SP-3] |  | lacked antimicrobial | 100 % of No Peptide Control | lacked antimicrobial and TSST-1 inhibition activity |  |  | 
3 | SFPTTKTYFPHFDLSHGSAQVK [Hbg-1] |  | No antimicrobial activity was observed |  |  | 20 and 22 and 17 and 21 and 19 and 25 |  | 
4 | SFPTTKTYFPHFDLSHGSAQVK-agarose beads (not fully specified (C-terminus)) [Hbg-3] |  | not antimicrobial |  | retained TSST-1 inhibition activity | 21 and 22 and 16 and 20 and 23 |  | 
5 | STKPFFYFLHTQVKASPTSHDG [Hbg-2] |  | not antimicrobial |  | comparably active as Hbg-1 | 24 and 22 and 30 and 25 and 23 |  | 
6 | human neutrophil peptide-1 [HNP-1, reference compound] |  | no antimicrobial activity was observed |  | highly inhibitory of production of TSST-1 |  | approximately 1 log | 10^−3 μg/mL
7 | human neutrophil peptide-2 (CYCRIPACIAGERRYGTCIYQGRLWAFCC; listed as Homo sapiens) [HNP-2, reference compound] |  | no antimicrobial activity was observed |  | highly inhibitory of production of TSST-1 |  | approximately 1 log | 10^−3 μg/mL
